Measured values published in paper PMC6719666 (Acta Crystallographica. Section D, Structural Biology, 2019).

Molecular target: T1, BcGDHγα (Burkholderia cepacia, UniProt Q8GQE7)
T1 construct: gene gdhAlpha; alpha (539 aa, 60 kDa) with C-terminal His tag; gamma 168 aa with signal peptide, mature 121 aa (13 kDa); pTrc99A, E. coli BL21(DE3); no beta-subunit; heterodimer; purified by Ni and cation exchange; with Glucose dehydrogenase gamma subunit (hitchhiker protein, small subunit)
T1 sequence (Q8GQE7 1-539): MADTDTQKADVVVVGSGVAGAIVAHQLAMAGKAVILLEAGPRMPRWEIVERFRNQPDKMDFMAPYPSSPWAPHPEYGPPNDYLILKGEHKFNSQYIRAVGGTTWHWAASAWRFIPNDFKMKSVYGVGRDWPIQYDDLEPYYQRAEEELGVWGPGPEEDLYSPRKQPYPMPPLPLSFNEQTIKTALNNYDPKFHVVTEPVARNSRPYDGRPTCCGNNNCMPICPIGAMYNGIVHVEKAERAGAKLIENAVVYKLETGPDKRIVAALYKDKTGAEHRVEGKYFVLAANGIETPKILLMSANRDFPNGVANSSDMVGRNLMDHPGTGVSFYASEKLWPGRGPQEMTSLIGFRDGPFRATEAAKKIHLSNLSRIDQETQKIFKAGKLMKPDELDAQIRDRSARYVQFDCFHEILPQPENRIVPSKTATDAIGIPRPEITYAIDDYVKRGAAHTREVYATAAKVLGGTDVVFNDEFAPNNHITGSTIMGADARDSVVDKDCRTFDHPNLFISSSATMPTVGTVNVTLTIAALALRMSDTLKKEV
T1 sequence (A0A0H3KLY3 48-168 partner): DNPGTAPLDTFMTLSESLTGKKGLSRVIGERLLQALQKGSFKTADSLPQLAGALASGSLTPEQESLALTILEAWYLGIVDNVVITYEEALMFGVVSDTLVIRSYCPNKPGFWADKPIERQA
Experiment: X-ray crystal structure, […] Å
Assay type: binding
Conditions: covalent; C8M of FAD to His105 of the alpha-subunit

For Cc1cc2nc3c(=O)[nH]c(=O)nc-3n(C[C@H](O)[C@H](O)[C@H](O)COP(=O)(O)OP(=O)(O)OC[C@H]3O[C@@H](n4cnc5c(N)ncnc54)[C@H](O)[C@@H]3O)c2cc1C [FAD], the “X-ray crystal structure, 2.6 Å” value was “a covalent bond was deemed to form between FAD and His105 in the α-subunit”.
